According to ChEMBL document CHEMBL5120872, “Synthesis and biological evaluation of novel 2-azido muramyl dipeptide as NOD2 agonistic adjuvants” (Bioorg Med Chem, 2022):
Active and inactive are the calls of the source. No cut-off for these calls is given here.

Legend:
[1] = target: Nucleotide-binding oligomerization domain-containing protein 2 (Homo sapiens) (UniProt Q9HC29); test: Agonist activity at NOD2 in HEK-Blue hNOD2 cells assessed as increase in SEAP activity at 20 ug incubated for 24 hrs by Quanti-blue assay; type: cell-based; conditions: filed as agonist, dose 20.0 µg
Peritoneal macrophage [2] = test: Immunostimulatory activity in BALB/c mouse peritoneal macrophages assessed as increase in TNF-aplha production at 20 ug incubated for 48 hrs by sandwich ELISA method; type: functional, cell-based; conditions: dose 20.0 µg
Peritoneal macrophage [3] = test: Cytotoxicity against BALB/c mouse peritoneal macrophages assessed as reduction in cell viability at 20 ug incubated for 48 hrs by MTT assay; type: toxicity, cell-based; conditions: dose 20 µg
Splenocyte [4] = test: Induction of Con A-stimulated mouse splenocyte proliferation assessed as increase in T cell population incubated for 48 hrs by MTT assay; type: functional, cell-based; conditions: dose 10-20 µg, DDE = dose-dependent effect
Mus musculus [5] = test: Induction of dengue virus antigen-induced immunogenicity in BALB/c mouse assessed as […] associated IgG2a production in sera treated at 10 to 30 ug and booster dosed on 14th day measured after 28 days by ELISA method; type: functional, organism-based; conditions: dose 10-30 µg, time 28.0 day
[6] = Induction of dengue virus antigen-induced immunogenicity in BALB/c mouse assessed as fold change in IgG production treated at 10 ug and booster dosed on 14th day measured after 28 days by ELISA method; type: functional; conditions: dose 10 µg; time 28 day
Splenocyte [7] = test: Induction of dengue virus antigen-induced immunogenicity in BALB/c mouse assessed as increase in CD8+ production in Splenocyte treated at 1 to 30 ug and booster dosed on 14 th day measured after 28 days by ELISA method; type: functional, organism-based; conditions: dose 1-30 µg, time 28.0 day
Mus musculus [8] = test: Induction of dengue virus antigen-induced immunogenicity in BALB/c mouse assessed as increase in IL-4 level booster dosed on 14th day and measured on day 28 after 48 hrs restimulation with antigen by ELISA method; type: functional, organism-based; conditions: dose 10-30 µg, time 28.0 day, DDE = dose-dependent effect
Mus musculus [9] = test: Induction of dengue virus antigen-induced immunogenicity in BALB/c mouse assessed as increase in IL-2 level booster dosed on 14th day and measured on day 28 after 48 hrs restimulation with antigen by ELISA method; type: functional, organism-based; conditions: dose 10-30 µg, time 28.0 day, DDE = dose-dependent effect
[10] = Induction of dengue virus antigen-induced immunogenicity in BALB/c mouse assessed as fold change in IgG production treated at 20 ug and booster dosed on 14th day measured after 28 days by ELISA method; type: functional; conditions: dose 20 µg; time 28 day
Mus musculus [11] = test: Induction of dengue virus antigen-induced immunogenicity in BALB/c mouse assessed as decrease in IFNgamma level booster dosed on 14th day and measured on day 28 after 48 hrs restimulation with antigen by ELISA method; type: functional, organism-based; conditions: dose 10-30 µM, time 28.0 day, DDE = dose-dependent effect
Splenocyte [12] = test: Induction of dengue virus antigen-induced immunogenicity in BALB/c mouse assessed as increase in CD8+ production in splenocyte treated at 20 ug and booster dosed on 14th day measured after 28 days by ELISA method; type: functional, organism-based; conditions: dose 20.0 µg, time 28.0 day
Splenocyte [13] = test: Induction of dengue virus antigen-induced immunogenicity in BALB/c mouse assessed as increase in CD4+ production in Splenocyte treated at 20 ug and booster dosed on 14th day measured after 28 days by ELISA method; type: functional, organism-based; conditions: dose 20.0 µg, time 28.0 day
Splenocyte [14] = test: Induction of LPS-stimulated mouse splenocyte proliferation assessed as increase in B cell population incubated for 48 hrs by MTT assay; type: functional, cell-based; conditions: dose 10-20 µg, DDE = dose-dependent effect
Splenocyte [15] = test: Induction of dengue virus antigen-induced immunogenicity in BALB/c mouse assessed as increase in CD4+ production in Splenocyte treated at 1 to 30 ug and booster dosed on 14th day measured after 28 days by ELISA method; type: functional, organism-based; conditions: dose 1-30 µg, time 28.0 day
Mus musculus [16] = test: Induction of dengue virus antigen-induced immunogenicity in BALB/c mouse assessed as increase in IL-1beta level treated at 10 to 20 ug and booster dosed on 14th day and measured on day 28 after 48 hrs restimulation with antigen by ELISA method; type: functional, organism-based; conditions: dose 10-20 µg, time 28.0 day

Chain of Nucleotide-binding oligomerization domain-containing protein 2 (Homo sapiens) (Q9HC29 whole entry, the tested form may be a part): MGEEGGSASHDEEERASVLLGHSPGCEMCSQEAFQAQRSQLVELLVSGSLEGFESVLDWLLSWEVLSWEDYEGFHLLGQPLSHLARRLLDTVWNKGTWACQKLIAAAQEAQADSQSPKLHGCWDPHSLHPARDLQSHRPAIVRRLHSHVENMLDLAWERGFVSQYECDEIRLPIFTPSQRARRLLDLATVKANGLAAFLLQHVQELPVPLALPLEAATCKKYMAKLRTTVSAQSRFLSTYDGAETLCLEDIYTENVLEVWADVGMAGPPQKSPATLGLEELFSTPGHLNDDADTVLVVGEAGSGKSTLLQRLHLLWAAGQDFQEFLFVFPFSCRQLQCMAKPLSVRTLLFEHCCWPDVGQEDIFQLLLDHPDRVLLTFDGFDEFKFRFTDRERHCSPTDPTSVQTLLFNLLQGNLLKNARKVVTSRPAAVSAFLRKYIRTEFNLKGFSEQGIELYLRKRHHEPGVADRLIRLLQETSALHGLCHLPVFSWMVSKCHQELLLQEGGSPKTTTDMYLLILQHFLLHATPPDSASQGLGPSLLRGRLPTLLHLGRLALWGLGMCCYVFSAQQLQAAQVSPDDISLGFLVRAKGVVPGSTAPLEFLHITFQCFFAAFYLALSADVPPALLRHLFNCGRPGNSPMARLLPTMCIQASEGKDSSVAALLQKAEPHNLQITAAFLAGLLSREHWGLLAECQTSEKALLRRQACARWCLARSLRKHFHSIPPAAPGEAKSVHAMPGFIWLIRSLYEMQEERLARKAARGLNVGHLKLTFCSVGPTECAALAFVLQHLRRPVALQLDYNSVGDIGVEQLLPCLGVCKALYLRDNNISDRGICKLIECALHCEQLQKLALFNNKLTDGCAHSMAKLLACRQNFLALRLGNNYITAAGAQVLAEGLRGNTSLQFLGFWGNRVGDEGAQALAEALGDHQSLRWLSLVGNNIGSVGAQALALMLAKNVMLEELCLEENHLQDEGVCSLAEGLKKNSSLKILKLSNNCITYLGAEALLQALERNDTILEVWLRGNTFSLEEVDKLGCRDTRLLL

Structure (SMILES)	Activity [1]	Activity (Peritoneal macrophage [2])	Activity (Peritoneal macrophage [3])	fold change (FC) [6]	fold change (FC) [10]	other results
CCCCCCCCOC(=O)CC[C@@H](NC(=O)[C@H](C)NC(=O)[C@@H](C)O[C@H]1[C@H](O)[C@@H](CO)O[C@H](OCc2ccccc2)[C@@H]1N=[N+]=[N-])C(N)=O	Active	Active	Non-Toxic			
CC(=O)N[C@H]1C(O)O[C@H](CO)[C@@H](O)[C@@H]1O[C@H](C)C(=O)N[C@@H](C)C(=O)N[C@H](CCC(=O)O)C(N)=O (stereo partly drawn) [MURAMYL DIPEPTIDE]	Active	Active	Non-Toxic	5	5	
CCCCCCCCCCCCCCOC(=O)CC[C@@H](NC(=O)[C@H](C)NC(=O)[C@@H](C)O[C@H]1[C@H](O)[C@@H](CO)O[C@H](OCc2ccccc2)[C@@H]1N=[N+]=[N-])C(N)=O	Active	Active	Non-Toxic			
C[C@H](NC(=O)[C@@H](C)O[C@@H]1[C@@H](N=[N+]=[N-])[C@@H](OCc2ccccc2)O[C@@H]2CO[C@@H](c3ccccc3)O[C@@H]12)C(=O)N[C@H](CCC(=O)OCc1ccccc1)C(N)=O	Active	Active	Non-Toxic			

The next lines start with results.

Activity [1]	Structure (SMILES)	Activity (Peritoneal macrophage [2])	Activity (Peritoneal macrophage [3])	fold change (FC) [6]	fold change (FC) [10]	other results
Active	C[C@H](NC(=O)[C@@H](C)O[C@H]1[C@H](O)[C@@H](CO)O[C@H](OCc2ccccc2)[C@@H]1N=[N+]=[N-])C(=O)N[C@H](CCC(=O)OCc1ccccc1)C(N)=O	Active	Non-Toxic	8	10	Activity (Splenocyte [4]): Dde; Activity (Mus musculus [5]): Active; Activity (Splenocyte [7]): Active; Activity (Mus musculus [8]): Dde; Activity (Mus musculus [9]): Dde; Activity (Mus musculus [11]): Dde; Activity (Splenocyte [12]): Active; Activity (Splenocyte [13]): Active; Activity (Splenocyte [14]): Dde; Activity (Splenocyte [15]): Active; Activity (Mus musculus [16]): Active
Active	C[C@H](NC(=O)[C@@H](C)O[C@H]1[C@H](O)[C@@H](CO)O[C@H](OCc2ccccc2)[C@@H]1N=[N+]=[N-])C(=O)N[C@H](CCC(=O)O)C(N)=O	Active	Non-Toxic			
